The text below walks through data of patent US5003055A, “Anthracycline derivatives having inhibitory activity against reverse transcriptase of human immunodeficiency virus” (priority 1987, dated 1991).

Data set [1] relates to mouse lymphocytic leukemia P-388 cells. The data set can be described thus: Cytotoxicity against P-388 cells (proliferation, MTT technique). In kind it is cell-based. The settings on record: for IC50: Mus musculus, P388, 48 h, read-out: Cytotoxicity against P-388 cells (IC50, μg/ml) (B); for Cytotoxicity against P-388 cells (IC50, μg/ml) (B): 2880 min. The procedure:
(b) On the other hand, the cytotoxicity was measured in the following manner. The novel anthracycline derivative of this invention was added to 5×10^3 cells of mouse lymphocytic leukemia P-388 in an incubation medium. After stirring, themixture was incubated Forty-eight hours later, the rate (%) of proliferation of the cells was measured by the MTT technique.

The conditions of data set [2]: background statement; cited from earlier work.
Data set [3] deals with HIV reverse transcriptase (Human immunodeficiency virus type 1 group M subtype B, UniProt P04585). The data set can be described thus: biochemical. The settings on record: for IC50: HIV reverse transcriptase inhibitory activity (IC50, μg/ml) (A), 37° C., 30 minutes, HIV lysate; for Enzyme inhibitory activity/cytotoxicity ratio (A)/(B): ratio of IC50 HIV reverse transcriptase (A) to IC50 P-388 (B). The procedure:
(a) After treating a supernatant of a culture of HIV-infected T4-cells (Molt 4/HTLV 1116/H9) with 9.5% polyethylene glycol for 3 hours, the supernatant was centrifuged at 2500 rpm for 30 minutes to obtain a precipitate. This precipitate was lysed with a mixture comprising 33.3% glycerol, […] tris-HCl (pH 7.5), 533 mM KCl, 0.32% Triton X-100 and 3.3 mM dithiothreitol, so as to prepare an HIV lysate (2.5×10^6 PFU/ml) The activity of the reverse transcriptase present in the HIV lysate thus prepared was determined in terms of the up-take rate of [α-^32 P]dATP during the synthesis of DNA, with using rabbit-β-globin mRNA and oligo dT as the template and primer, respectively. Thus, 1 μl of the HIV lysate was added to 9 μl of an enzymatic reaction solution comprising 50 mM tris-HCl (pH 8.3), 70 mM KCl, 10 mM MgCl2, 30 mM mercaptoethanol, 90 nM dNTPs, 3.3 μg/ml oligo dT, 8.3 mU/ml human placenta RNase inhibitor, 5 μg/ml β-globin mRNA, 0.14 mCi/ml [α-^32 P]dATP. After incubating the resultant mixture at 37° C. for 30 minutes, 10% aqueous trichloroacetic acid (TCA) was added to terminate the reaction.
After completion of the reaction, the whole reaction mixture was placed on a nitrocellulose membrane filter so as to adsorb the resultant DNA into the filter. The filter was then washed with 5% TCA and 20 mM sodium pyrophosphate to remove the unreacted [α-^32 P]dATP therefrom. The amount of the resultant DNA on the nitrocellulose membrane filter was calculated by measuring its radioactivity.
The novel anthracycline derivatives of this invention were separately added to the enzymatic reaction solution. The above experiment was repeated using the so prepared enzymatic reaction solution containing the anthracycline derivative as a test compound, so that the evaluation was made of IC50 of the test compound inhibitory to the activity of the HIV reverse transcriptase, namely the concentration of the test compound which was 50% inhibitory to the activity of the HIV reverse transcriptase.

SMILES strings stand for the structures. ≈ marks a conversion by molar mass, not a printed value. Where a name gives a salt, the structure may show the parent alone. Read-outs that look alike come from different tables or passages of the source.

For the compound `COc1cccc2c1C(=O)c1c(O)c3c(c(O)c1C2=O)C[C@@](O)(C(=O)CO)C[C@@H]3O[C@H]1C[C@H](N)[C@H](O)[C@H](C)O1` [ADM, adriamycin, reference compound], the IC50 in data set [1] (P-388, 48 hours, MTT technique) turned out to be 0.037 µg/mL (≈ 0.0681 µM). Also, in data set [2], the “toxicity (in words)” value was “high toxicity”.
`COc1cccc2c1C(=O)c1c(O)c3c(c(O)c1C2=O)C[C@@](O)(C(=O)CO)C[C@@H]3O[C@H]1C[C@H](N)[C@H](O)[C@H](C)O1` [ADM.HCl, reference compound]: in data set [1] (P-388, 48 hours, MTT technique), the “Cytotoxicity against P-388 cells (IC50, μg/ml) (B)” value (“Cytotoxicity against P-388 cells” for short) stood at 0.02 µg/mL.
For the compound `COCc1ccc(C(=O)OCC(=O)[C@]2(O)Cc3c(O)c4c(c(O)c3[C@@H](O[C@H]3C[C@H](N)[C@H](O)[C@H](C)O3)C2)C(=O)c2c(OC)cccc2C4=O)cc1OC` [NOVA-1, 14-O-(3-methoxy-4-methoxymethylbenzoyl)adriamycin], in data set [3], the IC50 is 41.6 µM and the “Enzyme inhibitory activity/cytotoxicity ratio (A)/(B)” value was 103. The IC50 in data set [1] (P-388, 48 hours, MTT technique) was found to be 0.29 µg/mL (≈ 0.402 µM).
For `CCCCCCOCc1ccc(C(=O)OCC(=O)[C@]2(O)Cc3c(O)c4c(c(O)c3[C@@H](O[C@H]3C[C@H](N)[C@H](O)[C@H](C)O3)C2)C(=O)c2c(OC)cccc2C4=O)cc1OCCCCCC` [NOVA-2, 14-O-(3-n-hexyloxy-4-n-hexyloxymethylbenzoyl)adriamycin], in that order: 19.7 µM, 35 and 0.48 µg/mL (≈ 0.557 µM).
For `CCCCCCCCCCCOCc1ccc(C(=O)OCC(=O)[C@]2(O)Cc3c(O)c4c(c(O)c3[C@@H](O[C@H]3C[C@H](N)[C@H](O)[C@H](C)O3)C2)C(=O)c2c(OC)cccc2C4=O)cc1OCCCCCCCCCCC` [NOVA-3.HCl, 14-O-(3-n-undecyloxy-4-n-undecyloxymethylbenzoyl)adriamycin hydrochloride], in that order: 18.5 µM, 38 and 0.49 µg/mL.
For `CCCCCCCCCCCOc1cc(C(=O)OCC(=O)[C@]2(O)Cc3c(O)c4c(c(O)c3[C@@H](O[C@H]3C[C@H](N)[C@H](O)[C@H](C)O3)C2)C(=O)c2c(OC)cccc2C4=O)ccc1CO` [NOVA-4, 14-O-(3-n-undecyloxy-4-hydroxymethylbenzoyl)adriamycin], in that order: 14.7 µM, 25 and 0.5 µg/mL (≈ 0.59 µM).
On to `CCCCCCCCCCCCCCCCCCOCc1ccc(C(=O)OCC(=O)[C@]2(O)Cc3c(O)c4c(c(O)c3[C@@H](O[C@H]3C[C@H](N)[C@H](O)[C@H](C)O3)C2)C(=O)c2c(OC)cccc2C4=O)cc1OCCCCCCCCCCCCCCCCCC` [NOVA-5.HCl, 14-O-(3-n-octadecyloxy-4-n-octadecyloxymethylbenzoyl)adriamycin hydrochloride], for which the IC50 was 18.4 µM in data set [3] and 3.2 µg/mL in data set [1] (P-388, 48 hours, MTT technique). Moreover, in data set [3], the “Enzyme inhibitory activity/cytotoxicity ratio (A)/(B)” value turned out to be 6.9.
Regarding `COc1cccc2c1C(=O)c1c(O)c3c(c(O)c1C2=O)C[C@@](O)(C(=O)COC(=O)c1ccc(CO)c(O)c1)C[C@@H]3O[C@H]1C[C@H](N)[C@H](O)[C@H](C)O1` [NOVA-6, 14-O-(3-hydroxy-4-hydroxymethylbenzoyl)adriamycin], in data set [3], the IC50 is 79.3 µM and the “Enzyme inhibitory activity/cytotoxicity ratio (A)/(B)” value is reported as 370. Also, the IC50 in data set [1] (P-388, 48 hours, MTT technique) amounted to 0.15 µg/mL (≈ 0.216 µM).
Consider `COc1cccc2c1C(=O)c1c(O)c3c(c(O)c1C2=O)C[C@@](O)(C(=O)COC(=O)c1ccc2c(c1)OC(C)(C)OC2)C[C@@H]3O[C@H]1C[C@H](N)[C@H](O)[C@H](C)O1` [NOVA-7, 14-O-(0-isopropylidene-3-hydroxy4-hydroxymethylbenzoyl)adriamycin], for which, in data set [3], the IC50 was 31.3 µM and the “Enzyme inhibitory activity/cytotoxicity ratio (A)/(B)” value is on record as 121. Moreover, the IC50 in data set [1] turned out to be 0.19 µg/mL (≈ 0.259 µM).
`COc1ccc(C(=O)OCC(=O)[C@]2(O)Cc3c(O)c4c(c(O)c3[C@@H](O[C@H]3C[C@H](N)[C@H](O)[C@H](C)O3)C2)C(=O)c2c(OC)cccc2C4=O)cc1OC` [NOVA-8, 14-O-(3,4-dimethoxybenzoyl)-adriamycin]: in data set [3], the IC50 is 26.8 µM and the “Enzyme inhibitory activity/cytotoxicity ratio (A)/(B)” value worked out at 58. For the same compound, the IC50 in data set [1] (P-388, 48 hours, MTT technique) is 0.33 µg/mL (≈ 0.466 µM).
Take `CCCCCCOc1ccc(C(=O)OCC(=O)[C@]2(O)Cc3c(O)c4c(c(O)c3[C@@H](O[C@H]3C[C@H](N)[C@H](O)[C@H](C)O3)C2)C(=O)c2c(OC)cccc2C4=O)cc1OCCCCCC` [NOVA-9, 14-O-(3,4-di-n-hexyloxybenzoyl)adriamycin]: in data set [3], the IC50 was 23.6 µM and the “Enzyme inhibitory activity/cytotoxicity ratio (A)/(B)” value stood at 7.8. Besides, the IC50 in data set [1] (P-388, 48 hours, MTT technique) stood at 2.6 µg/mL (≈ 3.07 µM).
In the case of `CCCCCCOc1ccc(C(=O)OCC(=O)[C@]2(O)Cc3c(O)c4c(c(O)c3[C@@H](O[C@H]3C[C@H](N)[C@H](O)[C@H](C)O3)C2)C(=O)c2c(OC)cccc2C4=O)cc1OCCCCCC` [NOVA-9.1/2H2 SO4], in data set [3], the IC50 was 27.1 µM and the “Enzyme inhibitory activity/cytotoxicity ratio (A)/(B)” value amounted to 4.4. Moreover, in data set [1] (P-388, 48 hours, MTT technique), the “Cytotoxicity against P-388 cells” value was 5.2 µg/mL.
Turning to `CCCCCCOc1ccc(C(=O)OCC(=O)[C@]2(O)Cc3c(O)c4c(c(O)c3[C@@H](O[C@H]3C[C@H](N)[C@H](O)[C@H](C)O3)C2)C(=O)c2c(OC)cccc2C4=O)cc1OCCCCCC` [NOVA-9.HCl], in data set [3], the IC50 was 17.7 µM and the “Enzyme inhibitory activity/cytotoxicity ratio (A)/(B)” value is 4.8. In addition, the “Cytotoxicity against P-388 cells” value in data set [1] (P-388, 48 hours, MTT technique) turned out to be 3.1 µg/mL.
Turning to `CCCCCCCCCCCOc1ccc(C(=O)OCC(=O)[C@]2(O)Cc3c(O)c4c(c(O)c3[C@@H](O[C@H]3C[C@H](N)[C@H](O)[C@H](C)O3)C2)C(=O)c2c(OC)cccc2C4=O)cc1OCCCCCCCCCCC` [NOVA-10.HCl], in data set [3], the IC50 was 16.2 µM and the “Enzyme inhibitory activity/cytotoxicity ratio (A)/(B)” value was found to be 8.9. For the same compound, in data set [1] (P-388, 48 hours, MTT technique), the IC50 worked out at 1.8 µg/mL.
For `CCCCCCCCCCCCCCCCCCOc1ccc(C(=O)OCC(=O)[C@]2(O)Cc3c(O)c4c(c(O)c3[C@@H](O[C@H]3C[C@H](N)[C@H](O)[C@H](C)O3)C2)C(=O)c2c(OC)cccc2C4=O)cc1OCCCCCCCCCCCCCCCCCC` [NOVA-11.HCl], in that order: 84.4 µM, 53 and 1.9 µg/mL.
For the compound `CCCCC(=O)Oc1ccc(C(=O)OCC(=O)[C@]2(O)Cc3c(O)c4c(c(O)c3[C@@H](O[C@H]3C[C@H](N)[C@H](O)[C@H](C)O3)C2)C(=O)c2c(OC)cccc2C4=O)cc1OC(=O)CCCC` [NOVA-12.HCl], the IC50 in data set [3] is 13 µM; in data set [1] (P-388, 48 hours, MTT technique), 0.22 µg/mL. In addition, the “Enzyme inhibitory activity/cytotoxicity ratio (A)/(B)” value in data set [3] stood at 50.
